In patent US20180206501A1, “CONTROLLING DISEASES AND INSECTS IN PLANTS” (priority 2017, published 2018):

Tests used:
[1] = Appearance of the solution in water pH = 10 at 24 hours; format: physicochemical; conditions: 50% stock plus water pH = 10
[2] = system: Escherichia coli (E. coli); assay: Microbial testing, standard pour plate count; format: cell-based
Procedure: The purpose of this study was to evaluate the effectiveness of test materials labeled #6, #7 and #8, in killing or reducing Escherichia coli (E. coli). The standard pour plate count test method was used to evaluate Percent Reduction of Colony Forming Units (CFU).
The E. coli (lot number 168756) was purchased from Quanti-Cult™ and is derived from original ATCC® stock cultures. They are received dehydrated. A viable streak plate was colonized from this culture. One colony was transferred to 5 ml of sterile Tryptic Soy Broth (lot # A3303) and incubated overnight. Antimicrobial activity was determined by comparing results from the test sample to simultaneously run controls or from the T0. The concentration of the suspension was determined using serial dilution and plate counts to determine the amount of Colony Forming Units (CFU's)/ml of suspension.
The materials tested in this study are described in the Purpose section. Sterile 0.3 mM KH2PO4 buffer was inoculated to a concentration of ˜1.0-3.0×10^5 CFU/ml. A To plate originated from the inoculated buffer for quantification and prepared 1:100 dilution to insure that viable inoculum was applied in the test system. The test materials were formulated in 20×150 […] test tubes. Aliquots of 0.3 grams of each of the materials (#6, #7 and #8) were added to sterile test tubes. […]

[3] = system: Cercospora; assay: Laboratory over-spray of sugar beet leaf cultures on agar incubation plates; format: cell-based; conditions: L-1 and Control leaf cultures; 0.5% solution with 5211 surfactant in water; 24 hours incubation
Procedure: The initial leaf cuttings from L-1 to L-3 were used for additional evaluations. […] All of the leaves were very green, showing no signs of Cercospora. When the leaves were cultured and incubated (three plates per sample), the plate counts on all of the samples were too numerous to count (TNTC) indicating signs of Cercospora infection.
The control sample was taken from a known infected control sample. In addition to the normal culturing process, leaf samples from L-1 and the Control were treated in the laboratory. This involved placing the leaf culture onto the agar incubation plate, over spraying the plate with a 0.5% solution Ztrex 72 and 5211 surfactant in water. The plates were further incubated for 24 hours.
Our Control sample was obtained from Michigan Sugar Company, Bay City, Mich. and was used for all of the initial lab studies.

| Compound | Solution @ 24 hours [1] | Application, microbial kill [2] | Plate count ([2]; 0.3 grams in 5 ml Tryptic Soy Broth, 1×10^5 CFU E. coli, 48 hours, T0 9.6×10^4 CFU/ml) | Evidence of Cercospora on the incubation plate [3] |
| --- | --- | --- | --- | --- |
| CO[Si](CCc1ccc(S(=O)(=O)Cl)cc1)(OC)OC [#8, 2-(4-chlorosulfonylphenyl)ethyltrimethoxysilane] | Clear | 99.99 | 16 CFU/ml | – |
| CCCCCCCCCCCCCCCCCC[N+](C)(C)CCC[Si](OC)(OC)OC.[Cl-] [Ztrex 72, (CH3O) Si (CH2)N^+ (CH3)2 (C18H37) Cl^−] | – | – | – | no evidence of Cercospora |
